# Laboratory results: US12599628B2, “Mitigation of cryptosporidiosis using hydrogen peroxide-generating compositions” (Purina Animal Nutrition, LLC, priority 2021, dated 2026)
# Key:
# C. parvum sporozoites = test: In vitro Cryptosporidium exposure: C. parvum sporozoites mixed with treatment, added to HCT-8 cells, qPCR of COWP gene; type: cell-based; conditions: all treatment concentrations (0.26, 2.08, 3.125, 6.25, 12.5, 18.75, 25, 450 mg/L); p<0.05; FIG. 1
# Experimental: (§1) Sodium percarbonate (0.26, 2.08, 3.125, 6.25, 12.5, 18.75, 25, or 450 mg/L) was tested for its ability to neutralize C. parvum sporozoites in host epithelial cells. HCT-8 (human ileocecal adenocarcinoma) cells were grown in a monolayer to 85-90% confluency in RPMI-1640 medium. Freshly excysted, washed C. parvum sporozoites were mixed with a sodium percarbonate treatment and then added to HCT-8 cells at 1.25×10^6 sporozoites per monolayer. The cells were incubated with the sporozoites for 2 hours at 10% CO2, 37° C. Cells were then washed and incubated in fresh media for 22 hours. Infected, untreated cells served as a control. After incubation, infected cells were harvested and DNA was isolated. The number of C. parvum were quantified using qPCR for the Cryptosporidium oocyst wall protein (COWP) gene.
# C. parvum oocysts = test: Mouse Cryptosporidium challenge, infection level in intestines by qPCR; type: in vivo, Cryptosporidium parvum; conditions: FIG. 2
# Experimental: Sodium percarbonate (“NPC”) at 0.26 mg/head, 12.5 mg/head, or 450 mg/head was tested in a Cryptosporidium challenge in mice. Eight-day-old ICR or CD-1 mice were divided into treatment (UA) and control (water) groups (n=10/group). Mice were infected with 1×10^4 C. parvum oocysts by oral inoculation. At the time of infection, and for every 12 hours thereafter, mice were treated with 100 μl per dose of NPC or water. A total of 8 doses per mouse were administered before termination of the challenge and collection of the intestines. The experiment was repeated twice (“Challenges I and II”). Infection levels were determined by qPCR against a known standard curve of C. parvum organisms.
# [1] = system: C. parvum oocysts (Iowa isolate); test: Clinical calf cryptosporidiosis trial (oocyst shedding, body weight, feces, clinical scores); type: in vivo, Cryptosporidium parvum; conditions: for daily number of oocysts shed compared to control group: FIG. 3; for decrease in weight over the course of the trial: FIG. 5
# [2] = system: C. parvum sporozoites excysted from oocysts shed by infected calves; test: Infectivity of Cryptosporidium oocysts shed by treated calves, excysted and tested on HCT-8 cells; type: cell-based, Cryptosporidium parvum; conditions: FIG. 8
# Experimental: as §1, with “HCT-8” for “Sodium percarbonate (0.26, 2.08, 3.125, 6.25, 12.5, 18.75, 25, or 450 mg/L) was tested for its ability to neutralize C. parvum sporozoites in host epithelial cells. HCT-8”
# Oocysts were collected from feces of calves in the control and treatment groups of Example 3 on multiple days during the duration of the study. The oocysts were excysted and analyzed to ensure equal excystation rates between the four treatment groups. HCT-8 cells were infected, harvested, and processed as described in Example 1.
compound,measurement,setting,value
O=C([O-])[O-].O=C([O-])[O-].OO.OO.OO.[Na+].[Na+].[Na+].[Na+] [sodium percarbonate],reduction in infection by C. parvum sporozoites of HCT-8 cells compared to untreated control,C. parvum sporozoites,significantly reduced infected
same,dose dependence of percent reduction in C. parvum infection,"C. parvum oocysts; mice, 0.26, 12.5, 450 mg/head",increased as treatment dose increased
same,percent reduction in C. parvum infection compared to control,"C. parvum oocysts; mice, 450 mg/head, 8 doses every 12 hours, oral",89.9%
same,daily number of oocysts shed compared to control group,"[1]; calves, 500 mg NPC BID in milk replacer, p<0.05",significantly fewer oocysts on Days 4-6 and 9-10 PI
same,reduction of mean total number of oocysts shed over the trial compared to control group,"[1]; calves, 500 mg NPC BID, Days 3-10 PI, p<0.05, FIG. 4",about 24%
same,daily number of oocysts shed compared to control group,"[1]; calves, 1000 mg NPC BID in milk replacer, p<0.05",significantly fewer oocysts on Days 6 and 10 PI
same,decrease in weight over the course of the trial,"[1]; infected calves, H-NPC (1000 mg NPC BID)",3.6%
same,decrease in weight over the course of the trial,"[1]; infected calves, L-NPC (500 mg NPC BID)",2.5%
same,weight loss compared to the control group,"[1]; infected calves, both NPC treatment groups (500 and 1000 mg BID)",tended to lose less weight
same,ability of shed oocysts to infect HCT-8 cells compared with oocysts from untreated calves,[2]; oocysts from calves treated with high-dose (1000 mg BID) sodium percarbonate,reduced ability to infect HCT-8 cells
same,ability of shed oocysts to infect HCT-8 cells compared with oocysts from untreated calves,[2]; oocysts from calves treated with low-dose (500 mg BID) sodium percarbonate,reduced ability to infect HCT-8 cells
